Data from patent publication EP0169787B1, “Use of oligonucleotides bonded to an intercalating agent as drugs” (priority 1984, dated 1986).
Read-outs that look alike come from different tables or passages of the source.

Legend:
A/Victoria (H3N2) = format: cell-based; conditions: cellules MDCK; for Pourcentage de destruction cellulaire Cultures infectées (effet cytopathogène) par A/Victoria (H3N2): 3 jours
virus SV40 = assay: Inhibition of SV40 multiplication (cytopathogenic effect) in CV1 cell cultures; format: cell-based; conditions: 3 jours, témoins 75
cellules CV1 = format: cell-based, singe
Protocol: La dilution de virus dans un tampon phosphate isotonique a été choisie de façon […] cultures témoins environ 75% de destruction cellulaire (75% d'effet cytopathogène) après 3 jours d'incubation. Après 1 heure de contact à 37°C, l'inocu- lum […] du même milieu contenant ou non les produits à étudier sont ajoutés. […] Des cultures de cellules non infectées par le virus et traitées avec les produits ont été aussi examinées pour […] cytotoxiques éventuels. Les pourcentages de destruction cellulaire dans les cultures infectées (effet cytopathogène) et dans les cultures non infectées (effet cytotoxique des produits) sont indiqués dans le tableau V.

Compound | Pourcentage de destruction cellulaire Cultures infectées (effet cytopathogène) par A/Victoria (H3N2) (A/Victoria (H3N2); 0,5 µg/ml) [%] | Pourcentage de destruction cellulaire Cultures infectées (effet cytopathogène) par A/Victoria (H3N2) (A/Victoria (H3N2); 0,25 µg/ml) [%] | Pourcentage de destruction cellulaire Cultures infectées (effet cytopathogène) par A/Victoria (H3N2) (A/Victoria (H3N2); 1,0 µg/ml) [%] | effet inhibiteur de la multiplication du virus grippal A/Victoria (H3N2) (A/Victoria (H3N2); result in words) | Pourcentage de destruction cellulaire Cultures infectées par SV40 (effet cytopathogène) (virus SV40; 0,5 µg/ml) [%] | Pourcentage de destruction cellulaire Cultures infectées par SV40 (effet cytopathogène) (virus SV40; 0,5 µg/ml, listed as Acr(CH2)50H) | Pourcentage de destruction cellulaire Cultures infectées par SV40 (effet cytopathogène) (virus SV40; 0,25 µg/ml) [%] | Pourcentage de destruction cellulaire Cultures infectées par SV40 (effet cytopathogène) (virus SV40; 0,25 µg/ml, listed as Acr(CH2)50H) | Pourcentage de destruction cellulaire Cultures infectées par SV40 (effet cytopathogène) (virus SV40; 1,0 µg/ml) [%] | Pourcentage de destruction cellulaire Cultures infectées par SV40 (effet cytopathogène) (virus SV40; 2,0 µg/ml) [%] | effet cytotoxique / toxicité vis-à-vis des cellules saines (cellules CV1)
COc1ccc2nc3cc(Cl)ccc3c(NCCCCCO)c2c1 [Acr(CH2)5OH, méthoxy-2 chloro-6 (ω-hydroxypentyl-amino)-9 acridine] | 100 | 100 | 100 | dépourvu d'activité | 50 | n'exerce pas d'effet inhibiteur significatif | 75 | n'exerce pas d'effet inhibiteur significatif | 75 | 100 | –
COc1ccc2nc3cc(Cl)ccc3c(NCCCCCCO)c2c1 [HO(CH2)6 Z", méthoxy-2-chloro-6(ω-hydroxyhexylamino)-9 acridine] | – | – | – | – | – | – | – | – | – | – | trop important
